From patent publication US11090292B2, “Compositions and methods of use of an inappetance-controlling compound” (Aratana Therapeutics, Inc., priority 2012, dated 2021)
Where two headings read alike, the source gives them in different places.

Assays:
IGF-1 = experiment: Example 5: serum IGF-1; format: in vivo, Beagle dogs; conditions: by Day 4, remained elevated on Day 7, Groups 2-4
Protocol: In order to further refine the dosing regimen that would provide an appropriate blood profile of capromorelin and desired results from the perspective of increased food intake and weight gain, an additional series of experiments were conducted. In these experiments, twenty-four adult (male and female) Beagle dogs weighing approximately 9 to 13 kilograms were randomly divided into four groups. Group 1 received a placebo formulation, without any active compound, two times per day; Group 2 received a composition comprising 3 mg/kg of body weight of capromorelin one time per day; Group 3 received a composition comprising 4.5 mg/kg of body weight of capromorelin one time per day; and Group 4 received a composition comprising 3 mg/kg of body weight of capromorelin two times per day. […]
In these experiments, the animals were orally administered the flavored formulation at approximately 8:00 AM and, for Group 4 only, again at 6:00 PM. […] Food consumption was calculated and recorded on Days −7 through Day 7. Baseline food consumption was calculated for each individual dog as the average number of grams of food consumed on Days −3, −2, and −1. The study period food consumption was calculated for each individual dog as the average of Days 1 through 7. […]

[1] = Example 9 four-day cat dosing regimen study: food consumption and body weight; format: in vivo, cats; conditions: for increase in body weight relative to baseline measurements: four days
Protocol: A four-day study was performed to further assess the pharmacokinetics of formulation 8 from Example 3 (i.e., the most “well-accepted” formulation) in cats. Moreover, the administration of formulation 8 was also analyzed to determine if administration of this formulation could induce sustained production of IGF-1 and relatively depressed, mitigated, or lower levels of cortisol. The different capromorelin-dosing regimens were also assessed for the impact on food intake and changes in body mass.
Twenty-four adult cats were divided into one of four treatment groups, with all four groups as active treatment groups. Each of the active treatment groups included 6 cats. The first group received a sterile injection of a capromorelin composition containing a 0.75 mg/kg concentration of capromorelin once per day during the four-day experiment. The second group received a once-daily sterile injection of a capromorelin composition at a concentration of 2 mg/kg. The third group received a once-daily dose of a capromorelin composition at a concentration of 2 mg/kg, via oral gavage. The fourth group received a once-daily dose of a capromorelin composition containing capromorelin at a concentration of 4 mg/kg, via oral gavage.
During the seven day study period, on an at least once-daily basis, each of the cats was monitored for clinical observations, mortality, moribundity, body mass, acceptability/palatability, and food consumption. Serum samples were taken to measure capromorelin concentration, IGF-1 concentration, and cortisol concentration. Serum samples were taken on days 1 and 4 immediately prior to dosing (0 minutes) and 30, 60, 90, 120, 240, 360, and/or 480 minutes post dosing. Additional serum samples were taken at 8 AM on Day 7 of the study to assess long-term impact of the active treatments.

[2] = Example 12 cat probe formulation study and pharmacokinetic analysis; format: in vivo, cats; conditions: for peak in serum concentration of capromorelin / time post administration of peak serum concentration: Day 0
Protocol: Similar to some of the other pharmacokinetic analyses conducted in dogs and cats, an additional pharmacokinetic study was conducted in cats to assess capromorelin formulations that allow sufficient drug to circulate to produce appetite stimulation and to define the capromorelin pharmacokinetic profile in cats. Briefly, twelve cats were randomized into Group 1 (six cats) and Group 2 (six cats). Group 1 received an intravenous formulation that included 0.75 mg/kg of capromorelin dissolved in sterile water and Group 2 received a previously tested formulation via oral gavage. Food consumption was determined daily for all cats. Specifically, animals were offered feed at approximately 11:00 AM, with the removal of feed at approximately 3:00 PM. Upon removal of feed, the amount consumed was calculated. […] Initially, the cats were given a seven day acclimation period to adjust to the experimental conditions and feed provided. After the acclimation period, on Day 0, all animals in Group 1 received an intravenous injection of the composition containing a dose of 0.75 mg/kg of capromorelin. On Day 0, the animals in Group 2 received an oral administration of the formulation via gavage at a dose of 3 mg/kg of capromorelin. On Day 0, serum samples were taken from the Group 1 animals at time 0 (pre-administration) and 5 minutes, 10 minutes, 30 minutes, 1 h, 2 h, 4 h, 6 h, 8 h, and 12 h post administration and serum samples were also taken from the Group 2 animals at time 0 (per-administration) and 15 minutes, 30 minutes, 45 minutes, 1 h, 2 h, 4 h, 6 h, 8 h, and 12 h post administration.

[3] = Group 1, intravenous 0.75 mg/kg

For `CN1N=C2CCN(C(=O)[C@@H](COCc3ccccc3)NC(=O)C(C)(C)N)C[C@@]2(Cc2ccccc2)C1=O.O=C(O)C(O)C(O)C(=O)O` [capromorelin], the “IGF-1 levels in treated animals” value (IGF-1) was “sustained increase”, the “increase in body weight relative to baseline measurements” value ([1]; 0.75 mg/kg sterile injection once daily) was 1.33% and the “increase in body weight relative to baseline measurements” value ([1]; 2 mg/kg oral once daily) was 0.70%. The “increase in body weight relative to baseline measurements” value ([1]; 2 mg/kg sterile injection once daily) was 2.37%, the “increase in body weight relative to baseline measurements” value ([1]; 4 mg/kg oral once daily) was 1.47% and the “food consumed relative to prior days of the experiment” value ([1]; sterile injectable formulations (0.75, 2 mg/kg) or 4 mg/kg oral gavage, once daily) was “consumed more food on day 4”. The “peak in serum concentration of capromorelin” value [2, 3] was “around 625 ng/mL”, the “time post administration of peak serum concentration” value [2, 3] was “around 5 minutes” and the “peak in serum concentration of capromorelin” value ([2]; Group 2, oral gavage 3 mg/kg) was “around 150 ng/mL”. For the same compound, the “time post administration of peak serum concentration” value ([2]; Group 2, oral gavage 3 mg/kg) was “around 2 hours”, the clearance ([2]; cat, serum, Group 1, intravenous 0.75 mg/kg, read-out: clearance of capromorelin) was about 30 mL/min/kg and the half-life ([2]; cat, serum, Group 1, intravenous 0.75 mg/kg, read-out: terminal half-life of capromorelin (converted)) was about 54 min. The Cmax ([2]; cat, serum, Group 2, oral gavage 3 mg/kg) was 149 ng/mL and the half-life ([2]; cat, serum, Group 2, oral gavage 3 mg/kg, read-out: mean-terminal half-life (converted)) was 62.4 min.
